From patent US20180147206A1, “ACTIVATION OF NEURONAL STORE-OPERATED CALCIUM ENTRY PATHWAY FOR THE TREATMENT OF ALZHEIMER'S DISEASE” (The Board of Regents of the University of Texas System, priority 2015, published 2018)

How the values were obtained:
[1] = tested on: mushroom spines in hippocampal CA1 neurons; experiment: Dendritic spine analysis in mice hippocampus after i.p. treatment; type: in vivo, mouse; conditions: i.p. 10 mg/kg for 10 weeks
[2] = tested on: hippocampal LTP; experiment: Hippocampal slice field recordings (LTP); type: cell-based, mouse; conditions: pre-treatment 300 nM for 2-3 hours
Description: (§1) FIGS. 6A-E. NSN21778 rescues mushroom spine and synaptic plasticity defects in AD hippocampal slices. (FIG. 6A) Confocal images of CA1 hippocampal slices from 6 month-old WTGFP, PS1KIGFP, and APPKIGFP mice. The images are shown for untreated slices (CON) and for slices treated with 300 nM NSN21778 (+NSN) for 3.5 hrs prior to fixation. Scale bar is 10 μm. (FIG. 6B) The fraction of mushroom spines in hippocampal CA1 neurons from 6 month-old WTGFP, PS1KIGFP, and APPKIGFP mice. The results are shown for untreated slices (CON) and for slices treated with 300 nM NSN21778 (+NSN). The average fraction of mushroom spines for each group of cells is shown as mean±SE (n≥31 neurons). ***, p <0.001. (FIG. 6C) Sample fEPSP traces are shown for 6 month-old WT and APPKI hippocampal slices prior to stimulation (basal), immediately after tetanus stimulation (induction) and 1 h after tetanus stimulation (after 1 hr). The results are shown for untreated slices and for slices pre-treated with 300 nM NSN21778 (+NSN) for 2-3 hours prior to tetanus stimulation. […]
Hippocampal slice field recordings. […] Field potentials (FPs) were recorded with extracellular recording electrodes (1 MΩ) filled with ACSF and placed in stratum radiatum of area CA1. […] The initial slope of the FPs was used to measure stability of synaptic responses and quantify the magnitude of LTP. […]

[3] = tested on: mushroom spines in hippocampal CA1 neurons; experiment: Dendritic spine analysis in hippocampal slice; type: cell-based, mouse; conditions: 6 month-old mice, 300 nM for 3.5 hours
Description: as §1, with “stimulation. (FIG. 6D) The normalized and averaged fEPSP slope is shown as a function of time in the experiments with 6 month-old wild-type and APPKI slices with (+NSN) or without 300 nM NSN21778 pre-treatment.” for “stimulation.”
Dendritic Spine Analysis in Hippocampal slice. […] Approximately 25 neurons from 5 mice were analyzed for each genotype. […]

[4] = tested on: amyloid plaques; experiment: Aβ immunohistochemistry, amyloid plaque load in APPKI mice; type: in vivo, mouse; conditions: 13 month-old APPKI mice; i.p. 10 mg/kg three times per week for 8 weeks

## CC(=O)Nc1ccc(CCNc2ncnc3ccc(N)cc23)cc1 [NSN21778, N-{4-[2-(6-Amino-quinazolin-4-ylamino)-ethyl]-phenyl}-acetamide]
[1]; PS1KIGFP and APPKIGFP mice
  mushroom spine deficiency in vivo: rescue of mushroom spine deficiency
[1]; WTGFP mice
  mushroom spines in vivo: no effect
[2]; APPKI slices, 6 month-old
  LTP defect: completely rescued
[2]; wild-type slices
  LTP: no significant effect
[3]; PS1KIGFP and APPKIGFP hippocampal slices
  mushroom spines: complete rescue
[3]; WTGFP slices
  mushroom spines: no effect
[4]
  plaque intensity: significant reduction
  total plaque area: significant reduction
